According to PMC7156458, “Synthetic biology based construction of biological activity-related library of fungal decalin-containing diterpenoid pyrones” (Nature Communications, 2020):

Assays:
Assay in all cases: cells
Design in all cases: species or system JFCR39 human cancer cell lines; JFCR39 panel growth inhibition, sulforhodamine B total protein after 48 h
OVCAR-3 = details: for GI50: Homo sapiens, OVCAR-3, 48 h
Method: (§1) Supplementary Note 24. Antiproliferative effects across the panel of JFCR39 cancer cell lines A panel of 39 human cancer cell lines, termed JFCR39, were previously described13-16. Cells were grown in RPMI-1640 (FUJIFILM Wako Pure Chemical Corporation, Tokyo, Japan) supplemented with 1 µg mL-1 kanamycin and 5% (v/v) fetal bovine serum (Nichirei Biosciences Inc, Tokyo, Japan) and incubated at 37°C in a humidified atmosphere supplemented with 5% CO2. Drug efficacy was assessed as changes in total cellular protein after 48 hours of drug treatment using a sulforhodamine B assay. Assays were done in duplicate and the GI50 was calculated as described previously13,16. The antitumor profile across the JFCR39 panel, or fingerprints were then compared to reference database containing ~2000 compounds by COMPARE algorithm16,17. Initially, we evaluated new DDP analogues for their antiproliferative activities across the panel of 39 human cancer cell lines, JFCR39[50],[51].

PC-3 = details: for GI50: Homo sapiens, PC-3, 48 h
Method: as §1

MKN-A = details: 48 h; for Log GI50: inhibitor, Log GI50, 48 h
Method: as §1

A549 = details: for GI50: Homo sapiens, A549, 48 h
Method: as §1

SF-539 = details: for GI50: Homo sapiens, SF-539, 48 h
Method: as §1

KM-12 = details: for GI50: Homo sapiens, KM12, 48 h
Method: as §1

OVCAR-8 = details: for GI50: Homo sapiens, OVCAR-8, 48 h
Method: as §1

NCI-H460 = details: for GI50: Homo sapiens, NCI-H460, 48 h; for Log GI50: 48 h, inhibitor, Log GI50, 48 h
Method: as §1

NCI-H226 = details: for GI50: Homo sapiens, NCI-H226, 48 h; for Log GI50: 48 h, inhibitor, Log GI50, 48 h
Method: as §1

MCF-7 = details: Homo sapiens, MCF7, 48 h
Method: as §1

SF-295 = details: Homo sapiens, SF-295, 48 h
Method: as §1

HCT-116 = details: for GI50: Homo sapiens, HCT-116, 48 h
Method: as §1

DMS273 = details: for GI50: Homo sapiens, DMS-273, 48 h; for Log GI50: 48 h, inhibitor, Log GI50, 48 h
Method: as §1

NCI-H522 = details: for GI50: Homo sapiens, NCI-H522, 48 h
Method: as §1

DMS114 = details: for GI50: Homo sapiens, DMS-114, 48 h; for Log GI50: 48 h, inhibitor, Log GI50, 48 h
Method: as §1

MKN1 = details: for GI50: Homo sapiens, MKN-1, 48 h
Method: as §1

ACHN = details: 48 h; for GI50: Homo sapiens, ACHN; for Log GI50: inhibitor, Log GI50, 48 h
Method: as §1

DU-145 = details: for GI50: Homo sapiens, DU-145, 48 h
Method: as §1

[1] = 48 h, inhibitor, Log GI50, 48 h

| SMILES | GI50 (OVCAR-3) [µM] | GI50 (PC-3) [µM] | GI50 (MKN-A) [nM] | GI50 (A549) [µM] | GI50 (SF-539) [µM] | GI50 (KM-12) [µM] | GI50 (OVCAR-8) [µM] | GI50 (NCI-H460) [nM] | GI50 (NCI-H226) [µM] | GI50 (MCF-7) [µM] | GI50 (SF-295) [µM] | GI50 (HCT-116) [µM] | GI50 (DMS273) [nM] | GI50 (NCI-H522) [µM] | GI50 (DMS114) [nM] | GI50 (MKN1) [µM] | GI50 (ACHN) [µM] | GI50 (DU-145) [µM] | other results |
| --- | --- | --- | --- | --- | --- | --- | --- | --- | --- | --- | --- | --- | --- | --- | --- | --- | --- | --- | --- |
| C=C1CCC2C(C)(CC(=O)C=C(C)C)C(O)CCC2(C)C1Cc1c(O)c(C)c(C)oc1=O (stereo not shown) [Compound 7] | 20.6 | 83 | 20500 | 66.7 | 61.4 | 56 | 35.7 | 11600 | 33.4 | 22.6 | 25.4 | 37.3 | 14100 | – | – | – | – | – | – |
| C=C1CCC2C(C)(CCC=C(C)C)C(O)CCC2(C)C1Cc1c(OC)oc(C)c(C)c1=O (stereo not shown) [Compound 11] | 3.61 | – | 308 | – | – | – | 3.61 | 86.5 | 18.2 | 1.88 | – | 0.736 | 199 | 1.95 | 56.5 | 30.6 | 11 | 16.5 | – |
| C=C1CC[C@@H]2[C@](C)(CC[C@H]3O[C@H](C=C(C)C)C[C@@]23C)[C@@H]1Cc1c(OC)oc(C)c(C)c1=O [Compound 22, O-methylated higginsianin A] | 2.34 | – | 211 | – | 10.5 | 10.6 | 4.78 | 80.7 | 3.79 | 1.5 | 2.45 | 1.78 | 224 | 0.478 | 60.1 | 10.2 | 2.33 | – | – |
| C=C1CCC2C(C)(CC(=O)C=C(C)C)C(O)CCC2(C)C1Cc1c(OC)oc(CO)c(C)c1=O (stereo not shown) [Compound 19] | 18.4 | 24.1 | 9570 | 34.4 | 65.8 | 56.2 | 40.8 | 6000 | 19.1 | 25.4 | 17.2 | 22.8 | 9980 | 12.4 | 6520 | 78.2 | 14.8 | 42.9 | – |
| C=C1CCC2C(C)(CCC=C(C)C)C(O)CCC2(C)C1Cc1c(OC)oc(CO)c(C)c1=O (stereo not shown) [Compound 16] | – | – | – | – | – | – | – | – | – | 4.46 | 2.8 | – | – | – | – | – | – | – | Log GI50 (OVCAR-3; [1]): -5.447 M; Log GI50 (PC-3; [1]): -5.211 M; Log GI50 (NCI-H522; [1]): -5.659 M; Log GI50 (DMS114): -6.139 M; Log GI50 (MKN-A): -5.445 M; Log GI50 (A549; [1]): -5.056 M; Log GI50 (SF-539; [1]): -4.953 M; Log GI50 (KM-12; [1]): -4.862 M; Log GI50 (OVCAR-8; [1]): -5.076 M; Log GI50 (NCI-H460): -6.167 M; Log GI50 (MKN1; [1]): -4.787 M; Log GI50 (NCI-H226): -5.269 M; Log GI50 (ACHN): -5.541 M; Log GI50 (HCT-116; [1]): -5.292 M; Log GI50 (DMS273): -5.822 M; Log GI50 (DU-145; [1]): -4.962 M |
| C=C1CCC2C(C)(CCC=C(C)C)C(O)CCC2(C)C1Cc1c(OC)oc(CO)c(C(=O)OC)c1=O (stereo not shown) [Compound 13] | 10.8 | 14.8 | – | 19.8 | 19.4 | 19.1 | 17.1 | 11200 | 16.9 | 13.8 | 11.9 | 18.4 | 16300 | 6.85 | 5890 | 18.8 | 12 | 15.2 | – |
| C=C1CCC2C(C)(CCC=C(C)C)C(O)CCC2(C)C1Cc1c(OC)oc(CO)c(C)c1=O (stereo not shown) [Compound 12] | 4.69 | 4.92 | – | 6.24 | 11.5 | 12.9 | 5.64 | – | – | – | – | 2.63 | – | 1.46 | – | 13.7 | – | 11.8 | Log GI50 (DMS114): -7.363 M; Log GI50 (MKN-A): -6.771 M; Log GI50 (NCI-H460): -7.132 M; Log GI50 (NCI-H226): -4.935 M; Log GI50 (ACHN): -4.976 M; Log GI50 (DMS273): -7.063 M |
| C=C1CC[C@@H]2[C@](C)(CC[C@H]3O[C@H](C=C(C)C)C[C@@]23C)[C@@H]1Cc1c(OC)oc(CO)c(C(=O)OC)c1=O [Compound 21] | 12 | 14.7 | 14300 | 18.5 | 18.4 | 18.2 | 16.7 | 12100 | 18.2 | 14.2 | 12.1 | 15 | 16600 | 8.73 | 4930 | 18.5 | 12.2 | 15.7 | – |
| C=C1CCC2C(C)(CCC=C(C)C)C(O)CCC2(C)C1Cc1c(OC)oc(C)c(C(=O)OC)c1=O (stereo not shown) [Compound 14] | 10.3 | 10.1 | – | 11 | 12.4 | 14.1 | 8.57 | 73.5 | 11.7 | 2.4 | 11.5 | 2.83 | 289 | 1.54 | 94.2 | 16.1 | 10.9 | 11.8 | – |
| C=C1CC[C@H]2[C@]3(C)C[C@@H](C=C(C)C)O[C@H]3CC[C@]2(C)[C@@H]1Cc1c(OC)oc(CO)c(C)c1=O [Compound 17] | 10.5 | 11.1 | 408 | 12.3 | 12.2 | 14.5 | 10.8 | 91.6 | 14 | – | 10.7 | 0.953 | 713 | 10.5 | 70.1 | 19.3 | 10.8 | 13.2 | – |
| C=C1CC[C@@H]2[C@](C)(CC[C@H]3O[C@H](C=C(C)C)C[C@@]23C)[C@@H]1Cc1c(OC)oc(CO)c(C)c1=O [Compound 20] | 3.81 | 11.4 | 98.6 | 11.4 | 12.3 | 14.8 | 12.3 | 81.1 | 13.6 | – | 11.2 | 10.4 | 89.3 | – | 47.6 | 14.6 | 11.1 | 12.7 | – |
